{"source": "patent US20170266133A1", "about": "(priority 2014, published 2017)", "key": {"[1]": {"molecular_target": "human DA transporters (DAT) (Homo sapiens, UniProt Q01959)", "sequence (Q01959 whole entry)": "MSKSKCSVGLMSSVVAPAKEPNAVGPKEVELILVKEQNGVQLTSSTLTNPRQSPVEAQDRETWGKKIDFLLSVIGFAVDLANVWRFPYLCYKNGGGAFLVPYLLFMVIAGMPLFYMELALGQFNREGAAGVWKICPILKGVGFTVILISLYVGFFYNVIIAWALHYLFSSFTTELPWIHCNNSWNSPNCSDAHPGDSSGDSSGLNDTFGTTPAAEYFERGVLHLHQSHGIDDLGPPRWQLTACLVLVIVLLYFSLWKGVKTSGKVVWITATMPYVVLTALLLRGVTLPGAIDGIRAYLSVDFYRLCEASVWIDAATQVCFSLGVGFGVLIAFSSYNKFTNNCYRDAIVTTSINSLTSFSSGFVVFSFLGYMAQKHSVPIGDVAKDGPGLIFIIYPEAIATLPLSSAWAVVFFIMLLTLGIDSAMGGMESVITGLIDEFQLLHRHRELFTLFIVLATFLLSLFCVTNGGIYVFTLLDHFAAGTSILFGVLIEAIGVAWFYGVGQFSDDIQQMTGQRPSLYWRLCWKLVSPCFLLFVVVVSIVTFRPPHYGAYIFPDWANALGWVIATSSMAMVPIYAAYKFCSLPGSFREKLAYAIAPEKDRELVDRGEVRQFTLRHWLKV", "assay": "dopamine uptake inhibition", "assay_type": "biochemical", "source_text": "(§1) Dasotraline [(1R,4S)-4-(3,4-Dichlorophenyl)-1,2,3,4-tetrahydronaphthalen-1-amine] is a novel compound with DNRI pharmacology."}, "[2]": {"test_system": "norepinephrine transporters", "assay": "circulating DHPG levels", "assay_type": "in vivo, human", "details": "8 mg/d"}, "DAT sites": {"molecular_target": "T1, DAT sites (Homo sapiens, UniProt Q01959)", "T1 construct": "from tissue; host or cells: in vivo occupancy", "T1 sequence (Q01959 whole entry)": "as above", "assay": "DAT site occupancy versus serum concentration (other studies, not shown)", "details": "in vivo"}, "clinical [3]": {"assay": "clinical", "assay_type": "in vivo, human", "experimental": "Upon oral administration, methylphenidate is rapidly and completely absorbed from the gastrointestinal tract. Peak concentrations occur 1 to 2 hours after dose administration. […] When methylphenidate and cocaine are administered intravenously, their pharmacokinetics are quite similar—the percentage of each drug taken up by the brain and their rates of uptake are parallel, although the clearance from the brain of cocaine is faster than that of methylphenidate. The receptor-binding affinities for cocaine and methylphenidate are similar at the dopamine transporter in the basal ganglia and the striatum. […] Thus it appears that abuse may be related to a rapid surge in dopamine levels in the striatum. […] The consequence of the slow increase in dopamine is the absence of a “high”, and the consequence of the long T1/2 is that, following daily dosing, serum concentration gradually increases to a steady state over the course of about 7 days."}, "clinical [4]": {"assay": "clinical", "details": "human, in vivo, 8 mg"}, "NE transporters (NET)": {"molecular_target": "NE transporters (NET) (Homo sapiens, UniProt P23975)", "sequence (P23975 whole entry)": "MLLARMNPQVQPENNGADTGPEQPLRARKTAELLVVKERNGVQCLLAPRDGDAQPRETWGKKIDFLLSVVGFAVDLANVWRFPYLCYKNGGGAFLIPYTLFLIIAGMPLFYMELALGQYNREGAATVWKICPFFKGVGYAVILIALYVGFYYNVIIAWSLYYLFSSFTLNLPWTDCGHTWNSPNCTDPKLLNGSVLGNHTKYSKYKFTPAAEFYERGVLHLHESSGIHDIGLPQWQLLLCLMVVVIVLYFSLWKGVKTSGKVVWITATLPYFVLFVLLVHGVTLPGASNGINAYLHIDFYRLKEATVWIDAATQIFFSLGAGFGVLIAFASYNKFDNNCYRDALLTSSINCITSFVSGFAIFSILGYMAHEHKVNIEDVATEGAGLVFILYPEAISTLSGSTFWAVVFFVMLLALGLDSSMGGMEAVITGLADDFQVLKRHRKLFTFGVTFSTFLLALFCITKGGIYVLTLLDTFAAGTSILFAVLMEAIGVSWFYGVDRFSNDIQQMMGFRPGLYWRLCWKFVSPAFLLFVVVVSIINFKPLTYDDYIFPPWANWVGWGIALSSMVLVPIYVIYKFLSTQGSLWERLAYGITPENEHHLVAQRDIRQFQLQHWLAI", "assay": "norepinephrine uptake inhibition", "assay_type": "biochemical", "source_text": "as §1"}, "adults with ADHD [5]": {"test_system": "adults with ADHD", "assay_type": "in vivo, human", "experimental": "(§2) The study consisted of 3 periods including Screening, Treatment, and Washout/Follow-up, as described below. Efficacy was evaluated using the ADHD Rating Scale Version IV (ADHD RS-IV) with adult prompts. Effects on cognition were evaluated using the […]. Safety and tolerability were monitored throughout the study by collection of physical examinations, 12-lead electrocardiograms (ECG), vital signs, adverse events (AEs), hematology, blood chemistry, urinalysis, Insomnia Severity Index (ISI), and Columbia-Suicide Severity Rating Scale (C-SSRS).\n(§3) Subjects self-administered the study drug at home on Days 1 through 28, at approximately the same time each night. After Day 1 subjects returned to the clinic on Days 8, 15, 22, and 29. Beginning at Day 1 and at every visit during the treatment period, the ADHD RS-IV, Wender-Reimherr Adult Attention Deficit Disorder Scale (WRAADDS), and clinical global impression—severity (CGI-S) were completed. The clinical data repository system was administered at Baseline, and Days 15 and 29.\n(§4) At Days 36 and 43, subjects returned to the clinic and the ADHD RS-IV, WRAADDS, and CGI-S were completed. The clinical data repository system was completed on Day 43."}, "adults with ADHD [6]": {"test_system": "adults with ADHD", "assay": "Phase 2 study in adults with ADHD, efficacy (ADHD RS-IV, CGI-S, WRAADDS, cognition)", "assay_type": "in vivo, human", "experimental": "as §2, §3, §4"}, "[7]": {"test_system": "healthy recreational stimulant users", "assay": "single-dose crossover abuse potential study in recreational stimulant users", "assay_type": "in vivo, human", "source_text": "A single-dose, randomized, double-blind, double-dummy, placebo- and active-controlled crossover study with 6 treatment visits per subject was undertaken. […] Subjects participated in a medical screening visit (Visit 1), one 4-day inpatient qualification phase (Visit 2), a treatment phase (Visits 3 to 8) consisting of six 5-day inpatient treatment visits, and a safety follow-up visit (Visit 9). Within 21 days of the screening visit, subjects were enrolled and attended a qualification phase in which they received either 60 mg methylphenidate or matching placebo in a randomized double-blind crossover manner. Dosing times were separated by approximately 24 hours to ensure that subjects could discriminate and show positive effects of the positive control.\nHealthy female and male subjects aged 18 to 55 years (inclusive), who were recreational central nervous system (CNS) stimulant users with cocaine experience and who had passed the methylphenidate qualification phase, were randomized into the treatment.\nDrug administration occurred on Day 1 of each treatment visit followed by pharmacodynamic (PD), pharmacokinetic (PK), and safety assessments conducted for up to 72 hours post-dose. […] Subjects were randomized to one of 6 treatment sequences according to a 6×6 William square design. The capsules received at each treatment visit (Visits 3 to 8) were identical. Serial pharmacodynamic and pharmacokinetic evaluations were taken at each treatment visit. pharmacokinetic analysis was performed for dasotraline. Safety monitoring included regular assessments of vital signs, clinical laboratory tests, and adverse events (AEs), as well as continuous telemetry monitoring for at least 12 hours post-dose. Treatment visits were separated by a washout interval of at least 21 days (from the day of dosing). Subjects returned for the safety follow-up visit within approximately 14 days following the end of the last treatment visit."}, "clinical [8]": {"assay": "clinical", "assay_type": "in vivo, human", "details": "for steady-state concentration: predicted for longer-term administration from weeks 1-4", "experimental": "as §2, §3, §4\nFrom the measurements of serum concentration at 1, 2, 3, and 4 weeks, one can graph a predicted serum concentration on longer-term administration."}, "[9]": {"details": "cited from earlier work"}, "[10]": {"details": "8 mg once daily, all assessment weeks"}, "[11]": {"details": "methylphenidate 40 mg and 80 mg, single dose"}}, "note": "pIC50: −log10 of the molar value."}
{"compound": "N[C@@H]1CC[C@@H](c2ccc(Cl)c(Cl)c2)c2ccccc21", "note": "[dasotraline, (1R,4S)-4-(3,4-Dichlorophenyl)-1,2,3,4-tetrahydronaphthalen-1-amine]", "values": [{"measurement": "pIC50", "setting": "[1]", "result": 8.52}, {"measurement": "circulating DHPG levels", "setting": "[2]", "result": "decreased circulating DHPG levels"}, {"measurement": "serum concentration at 50% DAT site occupancy", "setting": "DAT sites", "result": "5 to 6", "unit": "ng/mL"}, {"measurement": "time to steady state serum concentration", "setting": "clinical [3]; daily dosing", "result": "about 7 days"}, {"measurement": "Tmax", "setting": "clinical [3]; human, in vivo, po", "result": "10 to 12", "unit": "h"}, {"measurement": "half-life", "setting": "clinical [3]; human, in vivo, read-out: serum half-life (t1/2)", "result": "47 to 77", "unit": "h"}, {"measurement": "Cmax", "setting": "clinical [4]", "result": "~3", "unit": "ng/mL"}, {"measurement": "Tmax", "setting": "clinical [4]", "result": "> 6", "unit": "h"}, {"measurement": "pIC50", "setting": "NE transporters (NET)", "result": 8.40}, {"measurement": "drug misuse or diversion, Abuse Potential Monitoring Plan", "setting": "adults with ADHD [5]; 8 mg once daily", "result": "No evidence of drug misuse or diversion"}, {"measurement": "Treatment-emergent adverse events (TEAEs)", "setting": "adults with ADHD [5]; 8 mg once daily, 4 weeks", "result": "higher than the percentage of TEAEs in the placebo group"}, {"measurement": "anxiety leading to discontinuation", "setting": "adults with ADHD [5]; 8 mg once daily, 4 weeks", "result": 1.8, "unit": "%"}, {"measurement": "incidence of adverse events rated as severe", "setting": "adults with ADHD [5]; 8 mg once daily, 4 weeks", "result": 13.5, "unit": "%"}, {"measurement": "insomnia leading to discontinuation", "setting": "adults with ADHD [5]; 8 mg once daily, 4 weeks", "result": 10.8, "unit": "%"}, {"measurement": "panic attack leading to discontinuation", "setting": "adults with ADHD [5]; 8 mg once daily, 4 weeks", "result": 2.7, "unit": "%"}, {"measurement": "Drug Effects Questionnaire mean item scores, distance from the 0-point", "setting": "adults with ADHD [5]; [10]", "result": "≤ 5", "unit": "mm"}, {"measurement": "Drug Effects Questionnaire, drug liking", "setting": "adults with ADHD [5]; [10]", "result": "No evidence of drug liking"}, {"measurement": "withdrawal upon discontinuation of study drug", "setting": "adults with ADHD [5]; after 4 weeks of 8 mg once daily", "result": "No signs or symptoms of withdrawal"}, {"measurement": "computerized cognitive assessment battery: attention, working memory, episodic memory", "setting": "adults with ADHD [6]; 8 mg once daily", "result": "no significant main effects"}, {"measurement": "Wender-Reimherr ADD total score", "setting": "adults with ADHD [6]; 8 mg once daily vs placebo", "result": "did not improve enough to achieve statistical significance"}, {"measurement": "ADHD RS-IV total score, LS mean change from baseline versus placebo", "setting": "adults with ADHD [6]; 8 mg once daily, Week 2", "result": "trend to separation from placebo"}, {"measurement": "Wender-Reimherr subscore, attention difficulties component and disorganization component", "setting": "adults with ADHD [6]; 8 mg once daily, week 4, vs placebo", "result": "statistically significant improvement"}, {"measurement": "differences from placebo on pharmacodynamic endpoints", "setting": "[7]; 16 mg single dose", "result": "very few statistically significant differences from placebo"}, {"measurement": "effects on most pharmacodynamic endpoints versus placebo", "setting": "[7]; dasotraline 8, 16 and 36 mg, single dose", "result": "not significantly different from those of placebo"}, {"measurement": "steady-state concentration", "setting": "clinical [8]; dose of 6 mg", "result": "about 12 ng/mL"}, {"measurement": "steady-state concentration", "setting": "clinical [8]; dose of 8 mg", "result": "about 17 ng/mL"}, {"measurement": "concentration at 4 weeks", "setting": "clinical [8]; human, in vivo, 8 mg once daily, by week four, read-out: serum concentration plateau", "result": "15 to 20", "unit": "ng/mL"}, {"measurement": "serum concentration in the majority of patients", "setting": "clinical [8]; oral dosage form containing 6-8 mg", "result": "10 to 18", "unit": "ng/mL"}]}
{"compound": "COC(=O)C(c1ccccc1)C1CCCCN1", "note": "(stereo not shown) [methylphenidate]", "values": [{"measurement": "pharmacokinetic half-life", "setting": "[9]; in vivo", "result": "approximately 2 hours"}, {"measurement": "time to peak concentrations", "setting": "[9]; oral administration", "result": "1 to 2", "unit": "h"}, {"measurement": "Drug Similarity Visual Analog Scale", "setting": "[7]; [11]", "result": "strongly identified as a stimulant"}, {"measurement": "overall liking", "setting": "[7]; [11]", "result": "“liked” by subjects overall"}, {"measurement": "pharmacodynamic endpoints including Drug Liking Visual Analog Scale, versus placebo", "setting": "[7]; [11]", "result": "significant differences compared to placebo"}, {"measurement": "secondary stimulant measures", "setting": "[7]; [11]", "result": "strong stimulant effects"}]}
